According to paper PMC2834170 (Bioorganic & medicinal chemistry letters, 2010):

Assays:
[1] = target: μ opioid receptor (Homo sapiens, UniProt P35372); assay: Inhibition of μ opioid binding to CHO membranes
[2] = tested on: μ, δ and κ opioid receptors; assay: Selectivity across μ, δ and κ opioid binding to CHO membranes; conditions: for Selectivity μ/δ/κ: ratio of Ki values, CHO membranes
[3] = target: κ opioid receptor (Homo sapiens, UniProt P41145); assay: Inhibition of κ opioid binding to CHO membranes
[4] = relative to ether based compound 3

Chain of μ opioid receptor (P35372 whole entry, species assumed): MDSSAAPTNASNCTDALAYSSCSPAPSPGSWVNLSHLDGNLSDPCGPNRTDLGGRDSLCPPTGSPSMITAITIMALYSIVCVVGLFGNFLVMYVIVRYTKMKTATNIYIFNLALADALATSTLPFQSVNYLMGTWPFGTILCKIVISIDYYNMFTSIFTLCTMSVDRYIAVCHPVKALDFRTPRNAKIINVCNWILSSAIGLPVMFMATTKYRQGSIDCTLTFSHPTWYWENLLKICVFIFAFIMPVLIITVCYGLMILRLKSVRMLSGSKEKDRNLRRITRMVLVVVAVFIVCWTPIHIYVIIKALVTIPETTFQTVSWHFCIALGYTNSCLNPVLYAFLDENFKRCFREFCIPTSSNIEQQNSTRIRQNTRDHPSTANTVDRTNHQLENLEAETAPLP
Chain of κ opioid receptor (P41145 whole entry): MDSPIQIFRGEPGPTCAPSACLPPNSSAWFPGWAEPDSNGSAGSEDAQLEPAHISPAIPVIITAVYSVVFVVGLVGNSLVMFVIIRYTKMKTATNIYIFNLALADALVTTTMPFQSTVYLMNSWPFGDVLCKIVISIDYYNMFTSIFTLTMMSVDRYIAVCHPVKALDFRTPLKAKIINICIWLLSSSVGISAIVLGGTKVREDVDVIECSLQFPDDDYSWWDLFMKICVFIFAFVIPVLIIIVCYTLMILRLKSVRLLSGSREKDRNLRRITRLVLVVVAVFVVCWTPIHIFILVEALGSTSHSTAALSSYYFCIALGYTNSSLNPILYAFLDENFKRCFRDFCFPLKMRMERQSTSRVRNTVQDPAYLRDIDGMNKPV

OC(COc1ccc2c(c1)[C@@]13CCCC[C@H]1[C@@H](C2)N(CC1CCC1)CC3)COc1ccc2c(c1)[C@@]13CCCC[C@H]1[C@@H](C2)N(CC1CCC1)CC3 [Compound 6]
greater binding affinity at the μ receptor ([1]; relative to des-hydroxy analog 5): 7.5 fold
Selectivity μ/δ/κ [2]: 1/39/1

OC(COc1ccc2c(c1)[C@@]13CCCC[C@H]1[C@@H](C2)N(CC1CCC1)CC3)CC(O)COc1ccc2c(c1)[C@@]13CCCC[C@H]1[C@@H](C2)N(CC1CCC1)CC3 (some centres unmarked) [Compound 7]
Selectivity μ/δ/κ [2]: 7/194/1

OC(CCCCC(O)COc1ccc2c(c1)[C@@]13CCCC[C@H]1[C@@H](C2)N(CC1CCC1)CC3)COc1ccc2c(c1)[C@@]13CCCC[C@H]1[C@@H](C2)N(CC1CCC1)CC3 (some centres unmarked) [Compound 10]
Selectivity μ/δ/κ [2]: 1/23/1

OC(CCCCCCC(O)COc1ccc2c(c1)[C@@]13CCCC[C@H]1[C@@H](C2)N(CC1CCC1)CC3)COc1ccc2c(c1)[C@@]13CCCC[C@H]1[C@@H](C2)N(CC1CCC1)CC3 (stereo partly drawn) [Compound 12, Bis-((−)-N-cyclobutylmethylmorphinan-3-oxy) decane-2,9-diol]
increase in binding affinity at the μ opioid receptor [1, 4]: 27 fold
increase in binding affinity at the κ opioid receptor [3, 4]: 86 fold

c1cc2c(cc1OCC1CO1)[C@@]13CCCC[C@H]1[C@@H](C2)N(CC1CCC1)CC3 (some centres unmarked) [Compound 14]
Selectivity μ/δ/κ [2]: 1/27/5

CCCCCCCCC(O)COc1ccc2c(c1)[C@@]13CCCC[C@H]1[C@@H](C2)N(CC1CCC1)CC3 (some centres unmarked) [Compound 15]
weaker binding affinity at the μ and κ receptors ([2]; relative to bivalent ligand 12): 3–6 fold

CCCCCCCCCC(=O)Oc1ccc2c(c1)[C@@]13CCCC[C@H]1[C@@H](C2)N(CC1CCC1)CC3 [Compound 16]
Ki (nM) ± SE μ ([1]; CHO membranes): sub-nanomolar
Ki (nM) ± SE κ ([3]; CHO membranes): sub-nanomolar
Selectivity μ/δ/κ [2]: 1/100/1

CCCCCCCCCCOc1ccc2c(c1)[C@@]13CCCC[C@H]1[C@@H](C2)N(CC1CCC1)CC3 [Compound 17]
weaker binding affinity at the μ opioid receptor ([1]; relative to 15): 10 fold

OC(COc1ccccc1)COc1ccc2c(c1)[C@@]13CCCC[C@H]1[C@@H](C2)N(CC1CCC1)CC3 (some centres unmarked) [Compound 18]
weaker binding affinity at the μ opioid receptor ([1]; relative to bivalent hydroxy ether 6): 7.5 fold
Selectivity μ/δ/κ [2]: 1/13/3
